The values that follow come from patent publication US4863918A, “Enamine quaternary compounds, methods of making and their use as muscle relaxants” (BOC, Inc., priority 1988, dated 1989).

Data set [1] relates to paw twitch. The data set is described as follows: Twitch depression (muscle relaxant effect) in anesthetized rabbits; rabbit paw twitch. It is filed as in vivo, New Zealand White rabbits. To be noted: for ED90: Oryctolagus cuniculus, read-out: Equi-efficacious dose. The procedure:
[The procedure below names another organism; the source lists this organism under the same test.] Mongrel dogs were injected with 50 mg/kg of pentobarbital until the onset of anesthesia as determined by the eyeblink reflex test. The injectable solutions prepared above were administered intravenously to the anesthesized mongrel dogs and measurements were made of the muscle relaxant effect including maximum twitch depression, onset, duration and recovery time in a clinically known manner. Each of the subjects were compared with a control animal receiving an injection of distilled water.
The same compound of the present invention as in
A number of compounds in accordance with the present invention were tested for their neuromuscular blockade Properties. Specifically, the acid addition salts of the compounds were dissolved in sterile water for injection.

A short description of data set [2]: Cardiovascular change (HR, BP) at equi-efficacious dose in rabbits. Format: in vivo. The following applies: rabbit.
[3] abbreviates: Table VI, rabbit paw twitch, at indicated dose.
The mark [4] stands for this setting: Table VII, rabbit paw twitch, at indicated dose.
Setting [5] is: Table IV, rabbit, at equi-efficacious dose.
Setting [6] is: Table VIII, rabbit paw twitch, at indicated dose.
The mark [7] stands for this setting: Table VI, rabbit paw twitch, at indicated dose, in s.
Where [8] appears, read: Table IV, rabbit, at equi-efficacious dose, depolarizer, based on twitch recovery not to-f.
[9] abbreviates: Table IV, at equi-efficacious dose.

With `CCOC(=O)C[N+](CC)=C1C=C(N2CCC3(CC2)OCC2(CO3)COC3(CCN(C4=CC(=[N+](CC)CC(=O)OCC)CC(C)(C)C4)CC3)OC2)CC(C)(C)C1`, the Onset in data set [1] (setting [3]) came to 39 s.

`COC1C[N+](=C2C=C(N3CCCC4(C3)OCC3(CO4)COC4(CCCN(C5=CC(=[N+]6CCC(OC)(OC)C(OC)C6)CC(C)(C)C5)C4)OC3)CC(C)(C)C2)CCC1(OC)OC` (stereo not drawn) gave an Onset in data set [1] (setting [4]) of 44.4 s.

As to `COc1cc(CC2c3c(cc(OC)c(OC)c3OC)CC[N+]2(C)CCCOC(=O)CCC(=O)OCCC[N+]2(C)CCc3cc(OC)c(OC)c(OC)c3C2Cc2cc(OC)c(OC)c(OC)c2)cc(OC)c1OC` (stereo not drawn) [BW938], the Equi-efficacious dose in data set [1] (Table IV, rabbit paw twitch) came to 0.010 mg/kg. In data set [1] (setting [5]), the “Duration (DURAT.)” value was determined as 167.0 min, the Onset is 282.4 s and the “Recovery (RECOV.)” value amounted to 101.7 min. Besides, in data set [2] (in vivo), the BP % was -5.2% and the HR % is reported as -3.8%.

`CC1C[N+](=C2C=C(N3CCCC4(CC3)OCC3(CO4)COC4(CCCN(C5=CC(=[N+]6CCC7(OCCO7)C(C)C6)CC(C)(C)C5)CC4)OC3)CC(C)(C)C2)CCC12OCCO2` (stereo not drawn) [No. 11] registered an Onset in data set [1] (setting [6]) of 62.1 s.

`CC1(C)CC(N2CCCC3(C2)OCC2(CO3)COC3(CCCN(C4=CC(=[N+]5CCCC6(CC5)OCCO6)CC(C)(C)C4)C3)OC2)=CC(=[N+]2CCCC3(CC2)OCCO3)C1` (stereo not drawn) [No. 13]: the Onset in data set [1] (setting [4]) is 36.5 s.

In data set [1] (setting [6]), `CC1(C)CC(N2CCCC3(CC2)OCC2(CO3)COC3(CCCN(C4=CC(=[N+]5CCCCCC5)CC(C)(C)C4)CC3)OC2)=CC(=[N+]2CCCCCC2)C1` (stereo not drawn) [No. 13] displayed an Onset of 88.3 s.

The compound `CC1(C)CC(N2CCCC3(CC2)OCC2(CO3)COC3(CCCN(C4=CC(=[N+]5CCCC6(C5)OCCO6)CC(C)(C)C4)CC3)OC2)=CC(=[N+]2CCCC3(C2)OCCO3)C1` (stereo not drawn) [No. 14] had an Onset in data set [1] (setting [6]) of 44.5 s.

On to `CC[N+](CC1CC1)=C1C=C(N2CCCC3(C2)OCC2(CO3)COC3(CCCN(C4=CC(=[N+](CC)CC5CC5)CC(C)(C)C4)C3)OC2)CC(C)(C)C1` (stereo not drawn) [No. 17], for which the Onset in data set [1] (setting [4]) is 39.3 s.

In data set [1] (setting [4]), `CC1CCC[N+](=C2C=C(N3CCCC4(C3)OCC3(CO4)COC4(CCCN(C5=CC(=[N+]6CCCC(C)C6)CC(C)(C)C5)C4)OC3)CC(C)(C)C2)C1` (stereo not drawn) [No. 20] returned an Onset of 44.9 s.

In turn, `CC[N+](CCC1OCCO1)=C1C=C(N2CCCC3(C2)OCC2(CO3)COC3(CCCN(C4=CC(=[N+](CC)CCC5OCCO5)CC(C)(C)C4)C3)OC2)CC(C)(C)C1` (stereo not drawn) [No. 21] showed an Onset in data set [1] (setting [4]) of 33.3 s.

In the case of `CC1(C)CC(N2CCC3(CC2)OCC2(CO3)COC3(CCN(C4=CC(=[N+](Cc5ccco5)Cc5ccco5)CC(C)(C)C4)CC3)OC2)=CC(=[N+](Cc2ccco2)Cc2ccco2)C1` [compound 11], the Onset in data set [1] (setting [3]) was 77.3 s.

On to `CC[N+](Cc1cccs1)=C1C=C(N2CCC3(CC2)OCC2(CO3)COC3(CCN(C4=CC(=[N+](CC)Cc5cccs5)CC(C)(C)C4)CC3)OC2)CC(C)(C)C1` [compound 13], for which the Onset in data set [1] (setting [3]) is 88.1 s.

In data set [1] (setting [3]), `CC1(C)CC(N2CCC3(CC2)OCC2(CO3)COC3(CCN(C4=CC(=[N+]5CCCC6(CC5)OCCO6)CC(C)(C)C4)CC3)OC2)=CC(=[N+]2CCCC3(CC2)OCCO3)C1` [compound 14] gave an Onset of 52.8 s.

For the compound `CC1(C)CC(N2CCC3(CC2)OCC2(CO3)COC3(CCN(C4=CC(=[N+]5CC6CCC(CC6)C5)CC(C)(C)C4)CC3)OC2)=CC(=[N+]2CC3CCC(CC3)C2)C1` [compound 17], in data set [1] (setting [3]), the Onset was 49.6 s.

For the compound `CC1(C)CC(N2CCC3(CC2)OCC2(CO3)COC3(CCN(C4=CC(=[N+]5CCCCCCC5)CC(C)(C)C4)CC3)OC2)=CC(=[N+]2CCCCCCC2)C1` [compound 20], in data set [1] (setting [3]), the Onset worked out at 57.5 s.

As for `CCC[N+](CC1CC1)=C1C=C(N2CCC3(CC2)OCC2(CO3)COC3(CCN(C4=CC(=[N+](CCC)CC5CC5)CC(C)(C)C4)CC3)OC2)CC(C)(C)C1` [compound 21], the Onset in data set [1] (setting [3]) was 47.7 s.

`CC1(C)CC(N2CCC3(CC2)OCC2(CO3)COC3(CCN(C4=CC(=[N+]5CCCCCC5)CC(C)(C)C4)CC3)OC2)=CC(=[N+]2CCCCCC2)C1` [compound 24] gave an Onset in data set [1] (setting [3]) of 64 s.

On to `CC1CC[N+](=C2C=C(N3CCC4(CC3)OCC3(CO4)COC4(CCN(C5=CC(=[N+]6CCC(C)CC6)CC(C)(C)C5)CC4)OC3)CC(C)(C)C2)CC1` (stereo not drawn) [compound 28], for which the Onset in data set [1] (setting [3]) turned out to be 49.9 s.

Regarding `CC1(C)CC(N2CCC3(CC2)OCC2(CO3)COC3(CCN(C4=CC(=[N+]5CCCCCC5)CC(C)(C)C4)CC3)OC2)=CC(=[N+]2CCCCCC2)C1` [compound 29], the Onset in data set [1] (setting [3]) came to 56.1 s.

`CC1(C)CC(N2CCC3(CC2)OCC2(CO3)COC3(CCN(C4=CC(=[N+]5CCC(c6ccccc6)CC5)CC(C)(C)C4)CC3)OC2)=CC(=[N+]2CCC(c3ccccc3)CC2)C1` (stereo not drawn) [compound 31] displayed an Onset in data set [1] (setting [7]) of 105.6.

The compound `CC1CCC[N+](=C2C=C(N3CCC4(CC3)OCC3(CO4)COC4(CCN(C5=CC(=[N+]6CCCC(C)C6)CC(C)(C)C5)CC4)OC3)CC(C)(C)C2)C1` (stereo not drawn) [compound 33] came in with an Onset in data set [1] (setting [3]) of 53.1 s.

`C=CC[N+](CC=C)=C1C=C(N2CCC3(CC2)OCC2(CO3)COC3(CCN(C4=CC(=[N+](CC=C)CC=C)CC(C)(C)C4)CC3)OC2)CC(C)(C)C1` [compound 35] registered an Onset in data set [1] (setting [3]) of 61.9 s.

On to `C[N+](CCc1ccccc1)=C1C=C(N2CCC3(CC2)OCC2(CO3)COC3(CCN(C4=CC(=[N+](C)CCc5ccccc5)CC(C)(C)C4)CC3)OC2)CC(C)(C)C1` [compound 36], for which the Onset in data set [1] (setting [3]) was 81.9 s.

In data set [1] (setting [7]), `CC1=C(N2CCC3(CC2)OCC2(CO3)COC3(CCN(C4=C(C)C(=[N+]5CCCCCC5)CC4)CC3)OC2)CCC1=[N+]1CCCCCC1` [compound 38] displayed an Onset of 100.0.

As to `CC1(C)CC(N2CCC3(CC2)OCC2(CO3)COC3(CCN(C4=CC(=[N+]5CC6(C)CC5CC(C)(C)C6)CC(C)(C)C4)CC3)OC2)=CC(=[N+]2CC3(C)CC2CC(C)(C)C3)C1` [compound 39], the Onset in data set [1] (setting [3]) was determined as 75.9 s.

Regarding `CC[N+](CC)=C1C=C(N2CCC3(CC2)OCC2(CO3)COC3(CCN(C4=CC(=[N+](CC)CC)CC(C)C4)CC3)OC2)CC(C)C1` (stereo not drawn) [compound 41], the Onset in data set [1] (setting [3]) came to 51 s.

In the case of `CC1CC(N2CCC3(CC2)OCC2(CO3)COC3(CCN(C4=CC(=[N+]5CCCC6(CC5)OCCO6)CC(C)C4)CC3)OC2)=CC(=[N+]2CCCC3(CC2)OCCO3)C1` (stereo not drawn) [compound 42], in data set [1] (setting [3]), the Onset is 75.6 s.

In data set [1] (setting [3]), `CC1(C)CC(N2CCC3(CC2)OCC2(CO3)COC3(CCN(C4=CC(=[N+]5CCCCCC5)CC(C)(C)C4)CC3)OC2)=CC(=[N+]2CCCCCC2)C1` [compound 44] gave an Onset of 67.2 s.

On to `CC1(C)CC(N2CCC3(CC2)OCC2(CO3)COC3(CCN(C4=CC(=[N+]5CCCC5)CC(C)(C)C4)CC3)OC2)=CC(=[N+]2CCCC2)C1` [compound 46], for which the Onset in data set [1] (setting [3]) was found to be 62.8 s.

In the case of `CC1(C)CC(N2CCC3(CC2)OCC2(CO3)COC3(CCN(C4=CC(=[N+]5CCc6ccccc6C5)CC(C)(C)C4)CC3)OC2)=CC(=[N+]2CCc3ccccc3C2)C1` [compound 48], in data set [1] (setting [7]), the Onset amounted to 113.5.

In data set [1] (setting [3]), `CC1(C)CC(N2CCC3(CC2)OCC2(CO3)COC3(CCN(C4=CC(=[N+]5CCOCC5)CC(C)(C)C4)CC3)OC2)=CC(=[N+]2CCOCC2)C1` [compound 49] gave an Onset of 58.8 s.

As for `CC1(C)CC(N2CCC3(CC2)OCC2(CO3)COC3(CCN(C4=CC(=[N+]5CCCCC5)CC(C)(C)C4)CC3)OC2)=CC(=[N+]2CCCCC2)C1` [compound 50], the Onset in data set [1] (setting [3]) was 59.9 s.

In data set [1] (setting [3]), `CC1(C)CC(N2CCC3(CC2)OCC2(CO3)COC3(CCN(C4=CC(=[N+](CC5CC5)CC(F)(F)F)CC(C)(C)C4)CC3)OC2)=CC(=[N+](CC2CC2)CC(F)(F)F)C1` [compound 51] displayed an Onset of 51 s.

Turning to `CC1(C)CC(N2CCC3(CC2)OCC2(CO3)COC3(CCN(C4=CC(=[N+](CC5CC5)CC5CC5)CC(C)(C)C4)CC3)OC2)=CC(=[N+](CC2CC2)CC2CC2)C1` [compound 52], in data set [1] (setting [3]), the Onset amounted to 48.5 s.

As to `CC[N+](CCC1OCCO1)=C1C=C(N2CCC3(CC2)OCC2(CO3)COC3(CCN(C4=CC(=[N+](CC)CCC5OCCO5)CC(C)(C)C4)CC3)OC2)CC(C)(C)C1` [compound 53], in data set [1] (setting [3]), the Onset came to 58.6 s.

Turning to `CC[N+](CC)=C1C=C(N2CCC3(CC2)OCC2(CO3)COC3(CCN(C4=CC(=[N+](CC)CC)CC(C)C4)CC3)OC2)CC(C)C1` (stereo not drawn) [compound 54], the Onset in data set [1] (setting [3]) is 51 s.

Compound `CCC[N+](CC1CC1)=C1C=C(N2CCC3(CC2)OCC2(CO3)COC3(CCN(C4=CC(=[N+](CCC)CC5CC5)CC(C)C4)CC3)OC2)CC(C)C1` (stereo not drawn) [compound 56] yielded an Onset in data set [1] (setting [3]) of 62.3 s.

For the compound `C[N+](C)(C)CCCCCCCCCC[N+](C)(C)C` [decamethonium], the ED90 in data set [1] (Table IV, rabbit paw twitch) is 0.165 mg/kg. Besides, in data set [1] (setting [5]), the Onset was found to be 104.0 s. In data set [1] (setting [8]), the “Duration (DURAT.)” value worked out at 41.7 min and the “Recovery (RECOV.)” value came out at 41.7 min. In data set [2] (setting [9]), the BP % is -2.6% and the HR % is -2.8%.

As to `COc1ccc2cc1Oc1cc3c(cc1OC)CC[N+](C)(C)[C@H]3Cc1ccc(cc1)Oc1c(OC)c(OC)cc3c1[C@@H](C2)[N+](C)(C)CC3` [metocurine], in data set [1] (Table IV, rabbit paw twitch), the ED90 amounted to 0.025 mg/kg. For the same compound, in data set [1] (setting [5]), the “Duration (DURAT.)” value is 37.8 min, the Onset is 72.4 s and the “Recovery (RECOV.)” value was found to be 34.9 min. For the same compound, in data set [2] (setting [9]), the BP % is -1.6% and the HR % stood at 0.2%.

Compound descuronium yielded an Equi-efficacious dose in data set [1] (Table IV, rabbit paw twitch) of 0.053 mg/kg. In addition, in data set [1] (setting [5]), the “Duration (DURAT.)” value stood at 21.5 min, the Onset is 129.4 s and the “Recovery (RECOV.)” value turned out to be 13.1 min. Besides, in data set [2] (in vivo), the BP % is listed as -7.6% and the HR % is recorded as -4.1%.
